Results as given in publication PMC4224610 (Chemistry & biology, 2014).

Assays:
Type in all cases: biochemical
VhAasS [1] = molecular target: T1, VhAasS (Vibrio harveyi, UniProt Q00IB3); test: UREA-PAGE and mass spectrometry of ACP loading; conditions: holo-E. coli ACP as acceptor, ATP, MgCl2, pH 8, 37 °C overnight
TTHA0604 = molecular target: T2, TTHA0604 (Thermus thermophilus, UniProt Q5SKN9); test: coupled NADH assay at […] nm; conditions: decanoic acid, ATP, MgCl2, pH 8 100 mM Tris
T2 sequence (Q5SKN9 1-541): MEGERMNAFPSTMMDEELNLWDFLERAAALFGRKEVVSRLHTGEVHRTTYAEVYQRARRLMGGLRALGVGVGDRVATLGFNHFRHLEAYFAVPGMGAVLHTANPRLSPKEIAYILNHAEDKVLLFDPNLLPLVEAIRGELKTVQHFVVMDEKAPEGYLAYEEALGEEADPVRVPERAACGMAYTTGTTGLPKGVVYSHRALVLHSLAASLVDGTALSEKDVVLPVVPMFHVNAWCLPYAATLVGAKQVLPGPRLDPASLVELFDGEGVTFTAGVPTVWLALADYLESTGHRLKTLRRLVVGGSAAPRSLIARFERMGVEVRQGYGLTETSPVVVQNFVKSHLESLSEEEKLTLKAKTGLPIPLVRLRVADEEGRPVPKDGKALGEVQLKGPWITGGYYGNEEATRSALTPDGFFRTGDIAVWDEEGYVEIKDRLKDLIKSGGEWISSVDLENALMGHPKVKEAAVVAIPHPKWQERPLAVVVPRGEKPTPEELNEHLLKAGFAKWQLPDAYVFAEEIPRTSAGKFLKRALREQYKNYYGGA

Slr1609 = molecular target: T3, Slr1609 (Synechocystis sp. PCC 6803, UniProt P73004); test: coupled NADH assay at […] nm; conditions: decanoic acid, ATP, MgCl2, pH 8 100 mM Tris
T3 sequence (P73004 1-696): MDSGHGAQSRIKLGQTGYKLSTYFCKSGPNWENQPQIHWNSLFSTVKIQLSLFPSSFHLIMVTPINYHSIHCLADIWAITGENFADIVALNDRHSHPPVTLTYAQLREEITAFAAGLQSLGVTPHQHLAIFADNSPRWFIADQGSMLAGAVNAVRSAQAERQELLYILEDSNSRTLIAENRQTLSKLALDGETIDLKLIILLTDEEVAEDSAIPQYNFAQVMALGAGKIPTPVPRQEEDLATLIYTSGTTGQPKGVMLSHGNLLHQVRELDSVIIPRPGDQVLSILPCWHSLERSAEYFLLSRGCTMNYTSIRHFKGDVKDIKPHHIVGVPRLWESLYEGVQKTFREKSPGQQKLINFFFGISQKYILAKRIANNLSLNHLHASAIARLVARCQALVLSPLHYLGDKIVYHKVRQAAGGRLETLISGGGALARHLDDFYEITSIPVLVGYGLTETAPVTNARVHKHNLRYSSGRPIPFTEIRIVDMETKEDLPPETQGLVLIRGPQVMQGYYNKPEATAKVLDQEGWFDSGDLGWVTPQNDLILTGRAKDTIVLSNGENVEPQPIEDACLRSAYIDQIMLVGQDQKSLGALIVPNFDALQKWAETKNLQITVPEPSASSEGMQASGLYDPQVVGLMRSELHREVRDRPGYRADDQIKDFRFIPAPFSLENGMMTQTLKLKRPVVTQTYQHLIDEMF

VhAasS [2] = molecular target: T1, VhAasS; test: UREA-PAGE of ACP loading; conditions: holo-E. coli AcpP as acceptor, ATP, MgCl2, DTT, 37 °C overnight

O=C(O)CCCCC(=O)c1ccccc1 [5-benzoylvaleric acid]
UREA-PAGE and mass spectrometry of ACP loading (VhAasS [1]): functionalized fatty acids

CC(C)(COP(=O)(O)OP(=O)(O)OC[C@H]1O[C@@H](n2cnc3c(N)ncnc32)[C@H](O)[C@@H]1OP(=O)(O)O)[C@@H](O)C(=O)NCCC(=O)NCCS [coenzyme A]
coupled NADH assay at 340 nm; DTNB assay of CoA consumption; HPLC-MS (TTHA0604): both TTHA0604 and Slr1609 show acyl-CoA ligase activity | coupled NADH assay at 340 nm; DTNB assay of CoA consumption; HPLC-MS (Slr1609): both TTHA0604 and Slr1609 show acyl-CoA ligase activity

CCCCCCCCCC(=O)O [decanoic acid]
UREA-PAGE of ACP loading (VhAasS [2]): VhAasS showed increased loading over Slr1609, TTHA0604, and AAE15
